Data taken from patent EP1077966B1, “BIPHENYL SULFONYL ARYL CARBOXYLIC ACIDS USEFUL IN THE TREATMENT OF INSULIN RESISTANCE AND HYPERGLYCEMIA” (Wyeth, priority 1998, dated 1999).
Marks after values point to notes of the source that are not given here.

Test system: diabetic (ob/ob) mice
Test: Blood glucose lowering activity in diabetic (ob/ob) mice
Assay type: in vivo
Conditions: Dose 25 mg/Kg, plasma glucose relative to vehicle treated mice, statistically (p < 0.05) significant
From the text: The procedures used and results obtained are briefly described below.
The non-insulin dependent diabetic (NIDDM) syndrome can be typically characterizes by obesity, hyperglycemia, abnormal insulin secretion, hyperinsulinemia and insulin resistance.
In each test procedure, mice [Male or female ob/ob (C57 B1/6J) and their lean litermates (ob/+ or +/+, Jackson Laboratories) ages 2 to 5 months (10 to 65 g)] of a similar age were randomized according to body weight into 4 groups of 10 mice. The mice were housed 5 per cage and are maintained on normal rodent chow with water ad libitum. Mice received test compound daily by gavage (suspended in 0.5 ml of 0.5% methyl cellulose); dissolved in the drinking water; or admixed in the diet. The dose of compounds given ranges from 2.5 to 200 mg/kg body weight/day. The dose is calculated based on the fed weekly body weight and is expressed as active moiety. […] Control mice received vehicle only.
On the morning of Day 4, 7 or 14 two drops of blood (approximetly 50 ul) were collected into sodium fluoride containing tubes either from the tail vein or after decapitation. […] The plasma was isolated by centrifugation and the concentration of glucose is measured enzymatically on an Abbott V.P. Analyzer.
For each mouse, the percentage change in plasma glucose on Day 4, 7 or 14 is calculated relative to the mean plasma glucose of the vehicle treated mice. […]

Which “% Change Glucose from Vehicle” value does the source give for `O=C(O)c1ccc(S(=O)(=O)Oc2c(Br)cc(-c3ccc(-c4c(Cc5ccccc5)sc5ccccc45)cc3)cc2Br)cc1O` [Example 13, 4-[4'-(2-Benzyl-benzo[b]thiophen-3-yl)-3,5-dibromo-biphenyl-4-yloxysulfonyl]-2-hydroxy-benzoic acid] here?
The value was -24.6^a %.

Molecular target: T1, Human recombinant PTP1B (Homo sapiens, UniProt P18031)
T1 construct: made in house
T1 sequence (P18031 1-435): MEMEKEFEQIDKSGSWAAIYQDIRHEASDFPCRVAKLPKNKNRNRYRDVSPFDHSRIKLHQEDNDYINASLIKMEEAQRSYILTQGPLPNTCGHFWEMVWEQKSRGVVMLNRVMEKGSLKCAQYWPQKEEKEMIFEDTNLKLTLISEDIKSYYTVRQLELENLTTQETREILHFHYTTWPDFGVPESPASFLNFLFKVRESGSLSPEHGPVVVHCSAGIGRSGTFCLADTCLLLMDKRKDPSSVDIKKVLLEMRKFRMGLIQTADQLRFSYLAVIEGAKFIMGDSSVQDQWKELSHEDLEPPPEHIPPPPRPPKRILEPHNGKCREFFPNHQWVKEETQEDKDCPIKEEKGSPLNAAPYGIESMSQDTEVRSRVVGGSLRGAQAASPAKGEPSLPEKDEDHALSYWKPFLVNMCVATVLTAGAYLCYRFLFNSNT
Test: Inhibition of tri-phosphorylated insulin receptor dodecaphosphopeptide dephosphorylation by hPTP1B (malachite green-ammonium molybdate phosphate detection)
Assay type: biochemical
Conditions: substrate phosphotyrosyl dodecapeptide […] (insulin receptor 1142-1153), 37°C, 30 min, pH 7.4

With `O=C(O)c1ccc(S(=O)(=O)Oc2ccc(-c3ccc(-c4c(Cc5ccccc5)oc5ccccc45)cc3)cc2)cc1O` [Example 1, 4-[4'-(2-Benzyl-benzofuran-3-yl)-biphenyl-4-yloxysulfonyl]-2-hydroxy-benzoic acid] as the compound, how does the IC50 read?
The IC50 was 39 nM.

How did the IC50 turn out when `O=C(O)c1cc(S(=O)(=O)Oc2ccc(-c3ccc(-c4c(Cc5ccccc5)oc5ccccc45)cc3)cc2)ccc1O` [Example 2, 5-[4'-(2-Benzyl-benzofuran-3-yl)-biphenyl-4-yloxysulfonyl]-2-hydroxy-benzoic acid] was run?
Its IC50 is 26 nM.

For `O=C(O)c1ccc(S(=O)(=O)Oc2ccc(-c3ccc(-c4c(Cc5ccccc5)oc5ccccc45)cc3)cc2)cc1` [Example 3, 4-[4'-(2-Benzyl-benzofuran-3-yl)-biphenyl-4-yloxysulfonyl]-benzoic acid], which IC50 is on record?
The IC50 was 75 nM.

With `O=C(O)c1cccc(S(=O)(=O)Oc2ccc(-c3ccc(-c4c(Cc5ccccc5)oc5ccccc45)cc3)cc2)c1` [Example 4, 3-[4'-(2-Benzyl-benzofuran-3-yl)-biphenyl-4-yloxysulfonyl]-benzoic acid] as the compound, how does the IC50 read?
Its IC50 is 106 nM.

How did the IC50 turn out when `O=C(O)c1ccc(S(=O)(=O)Oc2ccc(-c3ccc(-c4coc5ccccc45)cc3)cc2)cc1O` [Example 5] was run?
The IC50 was 354 nM.

For `Cc1cc(-c2ccc(-c3c(Cc4ccccc4)oc4ccccc34)cc2)cc(C)c1OS(=O)(=O)c1ccc(C(=O)O)c(O)c1` [Example 6, 4-[4'-(2-Benzyl-benzofuran-3-yl)-3,5-dimethyl-biphenyl-4-yloxysulfonyl]-2-hydroxy-benzoic acid], which IC50 is on record?
Its IC50 is 34 nM.

Which IC50 does the source give for `O=C(O)c1ccc(S(=O)(=O)Oc2ccc(-c3ccc(-c4c(Cc5ccccc5)oc5ccccc45)cc3)cc2[N+](=O)[O-])cc1O` [Example 7, 4-[4'-(2-Benzyl-benzofuran-3-yl)-3-nitro-biphenyl-4-yloxysulfonyl]-2-hydroxy-benzoic acid] here?
Its IC50 is 29 nM.

Which IC50 does the source give for `O=C(O)c1ccc(S(=O)(=O)Oc2ccc(-c3ccc(-c4c(C(=O)c5ccccc5)oc5ccccc45)cc3)cc2[N+](=O)[O-])cc1O` [Example 8, 4-[4'-(2-Benzoyl-benzofuran-3-yl)-3-nitro-biphenyl-4-yloxysulfonyl]-2-hydroxy-benzoic acid] here?
The IC50 was 178 nM.

How did the IC50 turn out when `O=C(O)c1ccc(S(=O)(=O)Oc2ccc(-c3ccc(-c4c(C(=O)c5ccccc5)oc5ccccc45)cc3)cc2C2CCCC2)cc1O` [Example 9, 4-[4'-(2-Benzoyl-benzofuran-3-yl)-3-cyclopentyl-biphenyl-4-yloxysulfonyl]-2-hydroxy-benzoic acid] was run?
The IC50 was 40 nM.

How did the IC50 turn out when `Cc1sc(Cc2ccccc2)c(-c2ccc(-c3ccc(OS(=O)(=O)c4ccc(C(=O)O)c(O)c4)cc3)cc2)c1C` [Example 10, 4-[4'-(2-Benzyl-4,5-dimethyl-thiophen-3-yl)-biphenyl-4-yloxysulfonyl]-2-hydroxy-benzoic acid] was run?
Its IC50 is 32 nM.

With `O=C(O)c1ccc(S(=O)(=O)Oc2ccc(-c3ccc(-c4c(Cc5ccccc5)sc5ccccc45)cc3)cc2)cc1O` [Example 11, 4-[4'-(2-Benzyl-benzo[b]thiophen-3-yl)-biphenyl-4-yloxysulfonyl]-2-hydroxy-benzoic acid] as the compound, how does the IC50 read?
The IC50 was 28 nM.

Which IC50 does the source give for `O=C(O)c1ccc(S(=O)(=O)Oc2ccc(-c3ccc(-c4c(Cc5ccccc5)sc5ccccc45)cc3)cc2Br)cc1O` [Example 12, 4-[4'-(2-Benzyl-benzo[b]thiophen-3-yl)-3-bromo-biphenyl-4-yloxysulfonyl]-2-hydroxy-benzoic acid] here?
Its IC50 is 24 nM.

How did the IC50 turn out when `O=C(O)c1ccc(S(=O)(=O)Oc2c(Br)cc(-c3ccc(-c4c(Cc5ccccc5)sc5ccccc45)cc3)cc2Br)cc1O` [Example 13, 4-[4'-(2-Benzyl-benzo[b]thiophen-3-yl)-3,5-dibromo-biphenyl-4-yloxysulfonyl]-2-hydroxy-benzoic acid] was run?
Its IC50 is 30 nM.
